We go through 2 compounds from patent publication US6774143B1, “Method for treating cells resistant to antineoplastic agents” (Novartis AG, priority 2003, dated 2004).

This series deals with HCT-15 human colon tumor xenograft. Description: Subcutaneous HCT-15 colon tumor model in athymic nude mice. It is filed as in vivo. The following applies: for body weight losses, highest reached: 2.5-15 mg/kg. An excerpt:
All cell lines that are used in animal studies are free of Mycoplasma contamination (Rapid Detection System by Gen-Probe, Inc., San Diego, Calif.) and viral contamination (MAP testing by MA BioServices, Inc., Rockville, Md.). The HCT-15 human colon tumor cell line is purchased from the American Type Culture Collection, Rockville, Md., Accession Number ATCC CCL 225. The MIP 101 human colon tumor cell line is obtained from Dr. R. Kramer (Bristol Meyers Squibb) and was previously described (Niles R M, et al. Cancer Invest. 1987;5(6):545-52). These cells are Pgp-1 (human Pgp) overexpressors, making the cells resistant to paclitaxel. All cell lines are propagated and expanded in RPMI 1640 medium containing 10% heat-inactivated FBS (Life Technologies, Grand Island, N.Y.). Cell expansions for implantation are performed in T225 tissue culture flasks. Cells are harvested at 70-90% confluency, washed once with HBSS containing 10% FBS, and are suspended in plain HBSS.
Outbred athymic (nu/nu) female mice (“Hsd:Athymic Nude-nu” from Harlan Sprague Dawley, Indianapolis, Ind.) are anesthetized with Metofane (Mallinckrodt Veterinary, Inc., Mundelein, Ill.,). A cell suspension (100 μL) containing 1×10^6 cells is then injected sc into the right axillary (lateral) region of each animal. Tumors are allowed to grow until a volume of approximately 100 mm^3 was achieved. At this point, mice bearing tumors are sorted into groups of eight for the study. The sorting process produced groups balanced with respect to mean and range of tumor size.
Discodermolide is isolated from the sponge Discodermia dissoluta using the methods of (Gunasekera S P, et al. supra). Multiple batches of compound of similar purity (all>95% pure, as determined by mass spectrometry, and nuclear magnetic resonance analysis) are used throughout the various studies. Solid discodermolide is dissolved in pure ethanol to create a stock solution which is diluted just before dosing with Cremophor EL (Crm) and D5W to a final concentration of 16.7% Cremophor EL, 8.3% ethanol and 75% D5W. The compound is administered intravenously (iv). In the first study discodermolide is tested against both tumors at five different dosing schedules: (i.) 30 mg/kg dosed as two 15 mg/kg injections on day 1 of the experiment, (ii.) 30 mg/kg dosed as three 10 mg/kg injections on days 1, 2, and 3, (iii.) 15 mg/kg dosed as a single injection on day 1, (iv.) 20 mg/kg dosed as a 15 mg/kg injection on day 1, followed by a 5 mg/kg injection on day 11, and (v.) 10 mg/kg dosed as a 7.5 mg/kg injection on day 1 followed by a 2.5 mg/kg injection on day 11. In the second study discodermolide is dosed as one injection on the first day of the experiment, at 2.5 mg/kg, 5 mg/kg, 7.5 mg/kg, 10 mg/kg, 12.5 mg/kg, or 15 mg/kg. In addition the 7.5 mg/kg injection on day 1 followed by a 2.5 mg/kg injection on day 11 is repeated from the first study. The actual doses, regimens and routes of administration used for the specific models are discussed in each section separately. Positive control animals receive clinical formulations of paclitaxel (TAXOL) diluted 4-fold with D5W and administered iv once daily for five consecutive days. Vehicle control for paclitaxel is administered according to paclitaxel's schedule. In the first study vehicle controls for discodermolide (16.7% Cremophor EL, 8.3% ethanol and 75% D5W) are administered as three daily injections on days 1, 2, and 3, or as two injections on days 1, and 11. In the second study vehicle control for discodermolide is administered as a single injection on day 1.
Tumors are measured, and individual animal body weights are recorded once weekly. Standard experiments are conducted for 3 full weeks from the initial dosing.
Antitumor activity is expressed as % T/C (comparing Δ tumor volumes for treatment group to vehicle control group). […]

Setting [1] is: first study, 7.5 mg/kg day 1 + 2.5 mg/kg day 11.
Setting [2] is: first study, discodermolide iv single 15 mg/kg injection on day 1.
Where [3] appears, read: first study, two 15 mg/kg injections on day 1 (30 mg/kg total).
Where [4] appears, read: second study, 7.5 mg/kg day 1 + 2.5 mg/kg day 11.

As for `C=C/C=C\[C@H](C)[C@H](OC(N)=O)[C@@H](C)[C@H](O)[C@@H](C)C/C(C)=C\[C@H](C)[C@@H](O)[C@@H](C)/C=C\[C@@H](O)C[C@@H]1OC(=O)[C@H](C)[C@@H](O)[C@H]1C` [discodermolide, (+)-Discodermolide], the “inhibition of tumor growth (in words)” value (HCT-15 xenograft, athymic nude mice) is “statistically significant (p<0.01) and reproducible inhibition of tumor growth”. Also, the T/C (commonly the result in the treated group divided by that in the control group, in per cent) is given as 31% under setting [1]; 43% under setting [2]; 22% under setting [3]; 29% under setting [4]; 62% (second study, single injection 2.5 mg/kg day 1); 44% (second study, single injection 5 mg/kg day 1). Besides, the T/C runs as follows: (second study, single injection 7.5 mg/kg day 1) 43%; (second study, single injection 10 mg/kg day 1) 40%; (second study, single injection 12.5 mg/kg day 1) 28%; (second study, single injection 15 mg/kg day 1) 27%; (third study, single injection 2.5 mg/kg day 1) 54%; (third study, single injection 5 mg/kg day 1) 43%. The T/C reads like this: (third study, single injection 7.5 mg/kg day 1) 23%; (third study, single injection 10 mg/kg day 1) 27%; (third study, single injection 12.5 mg/kg day 1) 25%; (third study, single injection 15 mg/kg day 1) 19%. For the same compound, the body weight loss is 17.3% under setting [1], 18.9% under setting [2], 24.6% under setting [3] and 11.4% under setting [4]. In addition, under “first study, 15 mg/kg day 1 + 5 mg/kg day 11”, the “fate of the remaining four animals” value is given as “sacrificed due to the excessive body weight loss”. Moreover, the “animals that die in the second week” value (first study, 15 mg/kg day 1 + 5 mg/kg day 11, group of eight) was “Four animals”. For the same compound, where the note is “first study, 30 mg/kg as three 10 mg/kg injections on days 1, 2, 3, all animals”, the “fate of the animals” value is given as “sacrificed in the beginning of the third week of the experiment due to excessive body weight loss”. Also, the “body weight losses, highest reached” value is, setting by setting: (original dose response study (second)) 13%; (repeat of the dose response study (third experiment)) 23%. The body weight change is, setting by setting: (second study, single injection 2.5 mg/kg, gain) 3.5%; (second study, single injection 5 mg/kg) −1.9%; (second study, single injection 7.5 mg/kg) −7.9%; (second study, single injection 10 mg/kg) −8.5%; (second study, single injection 12.5 mg/kg) −12.9%; (second study, single injection 15 mg/kg) −11.0%. Moreover, the body weight change (third study, single injection 2.5 mg/kg, gain) came out at 1.7%; the body weight change (third study, single injection 5 mg/kg) is −8.9%; the body weight change (third study, single injection 7.5 mg/kg) is given as −23.3%; the body weight change (third study, single injection 10 mg/kg) is −17.6%; the body weight change (third study, single injection 12.5 mg/kg) is on record as −20.1%; the body weight change (third study, single injection 15 mg/kg) is −13.4%.

Turning to `CC(=O)O[C@H]1C(=O)[C@@]2(C)[C@H]([C@H](OC(=O)c3ccccc3)[C@]3(O)C[C@H](OC(=O)[C@H](O)[C@@H](NC(=O)c4ccccc4)c4ccccc4)C(C)=C1C3(C)C)[C@]1(OC(C)=O)CO[C@@H]1C[C@@H]2O` [paclitaxel, reference compound], the T/C by setting is: (first study, paclitaxel 15 mg/kg daily for the first 5 days) 95%; (second study, paclitaxel iv once daily for five days) 94%; (third study, paclitaxel iv once daily for five days) 81%.
